How the values were obtained:
Experiment in all cases: KINOMEscan competition binding
Details in all cases: compound 0.1 µM
ALK (human) = ALK (human) (UniProt Q9UM73)
AXL (human) = AXL (human) (UniProt P30530)
BMPR1B (human) = BMPR1B (human) (UniProt O00238)
CDC2L2 (human) = CDC2L2 (human) (UniProt Q9UQ88)
CDK19 (human) = CDK19 (human) (UniProt Q9BWU1)
CDK7 (human) = CDK7 (human) (UniProt P50613)
[1] = tested on: EGFR (human), P00533 [A750P; 747-749 del]
[2] = tested on: EGFR (human), P00533 [L858R]
ERBB3 (human) = ERBB3 (human) (UniProt P21860)
ERN1 (human) = ERN1 (human) (UniProt O75460)
[3] = tested on: FLT3 (human), P36888 [K663Q]
FRK (human) = FRK (human) (UniProt P42685)
HIPK3 (human) = HIPK3 (human) (UniProt Q9H422)
IRAK1 (human) = IRAK1 (human) (UniProt P51617)
ITK (human) = ITK (human) (UniProt Q08881)
MAP3K5 (human) = MAP3K5 (human) (UniProt Q99683)
MAP3K7 (human) = MAP3K7 (human) (UniProt O43318)
MAP4K1 (human) = MAP4K1 (human) (UniProt Q92918)
MAP4K2 (human) = MAP4K2 (human) (UniProt Q12851)
MAPK10 (human) = MAPK10 (human) (UniProt P53779)
MERTK (human) = MERTK (human) (UniProt Q12866)
MST1R (human) = MST1R (human) (UniProt Q04912)
NEK5 (human) = NEK5 (human) (UniProt Q6P3R8)
NTRK1 (human) = NTRK1 (human) (UniProt P04629)
PHKG1 (human) = PHKG1 (human) (UniProt Q16816)
PRKG2 (human) = PRKG2 (human) (UniProt Q13237)
[4] = tested on: RET (human), P07949 [M918T]
RPS6KA2 KD1 (human) = RPS6KA2 KD1 (human) (UniProt Q15349)
RPS6KA5 KD1 (human) = RPS6KA5 KD1 (human) (UniProt O75582)
SGK110 (human) = SGK110 (human) (UniProt P0C264)
TESK1 (human) = TESK1 (human) (UniProt Q15569)
TGFBR2 (human) = TGFBR2 (human) (UniProt P37173)
TIE1 (human) = TIE1 (human) (UniProt P35590)
TSSK1B (human) = TSSK1B (human) (UniProt Q9BXA7)
[5] = biological target: TYK2 JH2 pseudokinase (human) (UniProt P29597)

MAP3K5 (human), sequence (Q99683 whole entry, looked up): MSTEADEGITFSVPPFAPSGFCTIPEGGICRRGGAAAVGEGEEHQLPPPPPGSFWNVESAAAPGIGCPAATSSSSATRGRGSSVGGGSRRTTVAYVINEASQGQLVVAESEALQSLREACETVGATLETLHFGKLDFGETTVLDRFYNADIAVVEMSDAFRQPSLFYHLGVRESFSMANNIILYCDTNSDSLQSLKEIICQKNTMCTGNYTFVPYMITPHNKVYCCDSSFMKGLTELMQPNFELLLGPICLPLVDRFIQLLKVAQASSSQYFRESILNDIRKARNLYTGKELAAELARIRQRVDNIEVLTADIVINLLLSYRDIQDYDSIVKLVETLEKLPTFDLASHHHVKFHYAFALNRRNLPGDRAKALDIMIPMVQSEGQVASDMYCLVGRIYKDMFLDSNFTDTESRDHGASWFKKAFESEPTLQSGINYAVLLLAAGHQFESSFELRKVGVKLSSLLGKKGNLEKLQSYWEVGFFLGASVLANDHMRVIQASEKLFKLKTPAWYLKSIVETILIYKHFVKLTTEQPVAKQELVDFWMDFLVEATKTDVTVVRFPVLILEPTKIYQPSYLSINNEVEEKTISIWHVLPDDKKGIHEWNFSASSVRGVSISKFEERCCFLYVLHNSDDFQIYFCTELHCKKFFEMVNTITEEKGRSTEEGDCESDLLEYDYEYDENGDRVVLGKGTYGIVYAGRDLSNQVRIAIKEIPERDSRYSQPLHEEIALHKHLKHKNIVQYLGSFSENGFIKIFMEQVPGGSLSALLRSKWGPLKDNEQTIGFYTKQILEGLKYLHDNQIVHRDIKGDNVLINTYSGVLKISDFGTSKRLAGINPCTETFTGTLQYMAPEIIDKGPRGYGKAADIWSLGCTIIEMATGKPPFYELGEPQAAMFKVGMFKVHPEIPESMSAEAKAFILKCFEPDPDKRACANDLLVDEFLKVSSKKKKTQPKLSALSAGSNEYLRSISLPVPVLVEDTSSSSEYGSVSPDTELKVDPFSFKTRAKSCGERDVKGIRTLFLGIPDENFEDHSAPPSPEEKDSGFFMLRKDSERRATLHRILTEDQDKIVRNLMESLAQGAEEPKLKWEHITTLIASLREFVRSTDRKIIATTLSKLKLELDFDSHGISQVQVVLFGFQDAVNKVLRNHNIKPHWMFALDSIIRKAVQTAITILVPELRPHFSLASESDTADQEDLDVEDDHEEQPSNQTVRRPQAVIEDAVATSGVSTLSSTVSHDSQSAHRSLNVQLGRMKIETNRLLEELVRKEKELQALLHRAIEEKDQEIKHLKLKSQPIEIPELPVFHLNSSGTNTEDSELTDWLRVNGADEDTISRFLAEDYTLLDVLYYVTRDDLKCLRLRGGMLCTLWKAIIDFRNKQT
HIPK3 (human), sequence (Q9H422 whole entry, looked up): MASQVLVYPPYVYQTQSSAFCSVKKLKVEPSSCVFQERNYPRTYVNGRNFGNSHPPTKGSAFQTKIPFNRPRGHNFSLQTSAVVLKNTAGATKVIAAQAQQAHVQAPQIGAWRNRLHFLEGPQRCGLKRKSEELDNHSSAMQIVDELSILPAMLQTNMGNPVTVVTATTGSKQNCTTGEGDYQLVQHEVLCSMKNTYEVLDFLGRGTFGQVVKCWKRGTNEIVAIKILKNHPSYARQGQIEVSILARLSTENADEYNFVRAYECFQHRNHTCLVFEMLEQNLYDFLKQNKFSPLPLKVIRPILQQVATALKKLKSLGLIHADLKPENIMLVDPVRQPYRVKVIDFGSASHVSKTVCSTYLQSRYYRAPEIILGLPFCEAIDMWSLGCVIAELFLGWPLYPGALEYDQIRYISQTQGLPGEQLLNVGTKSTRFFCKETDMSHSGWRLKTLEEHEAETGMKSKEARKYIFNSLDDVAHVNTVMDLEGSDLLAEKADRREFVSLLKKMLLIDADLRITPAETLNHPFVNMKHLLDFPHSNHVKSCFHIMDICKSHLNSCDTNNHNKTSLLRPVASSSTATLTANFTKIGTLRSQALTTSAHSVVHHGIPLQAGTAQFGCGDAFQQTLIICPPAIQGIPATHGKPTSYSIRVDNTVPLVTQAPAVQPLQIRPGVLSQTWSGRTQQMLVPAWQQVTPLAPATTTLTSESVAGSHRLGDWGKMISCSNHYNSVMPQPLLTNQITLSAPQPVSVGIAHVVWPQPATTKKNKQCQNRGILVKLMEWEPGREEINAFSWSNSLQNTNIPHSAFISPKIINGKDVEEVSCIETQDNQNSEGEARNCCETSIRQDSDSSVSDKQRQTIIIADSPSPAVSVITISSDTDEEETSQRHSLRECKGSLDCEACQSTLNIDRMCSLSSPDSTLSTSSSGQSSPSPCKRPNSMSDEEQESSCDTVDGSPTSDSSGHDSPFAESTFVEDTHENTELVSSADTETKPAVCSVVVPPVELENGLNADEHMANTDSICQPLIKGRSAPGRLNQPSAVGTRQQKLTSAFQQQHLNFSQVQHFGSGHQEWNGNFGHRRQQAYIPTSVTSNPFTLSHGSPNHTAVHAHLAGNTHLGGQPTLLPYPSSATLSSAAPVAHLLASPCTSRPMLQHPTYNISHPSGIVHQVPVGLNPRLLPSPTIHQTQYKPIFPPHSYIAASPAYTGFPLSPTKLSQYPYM
MST1R (human), sequence (Q04912 whole entry, looked up): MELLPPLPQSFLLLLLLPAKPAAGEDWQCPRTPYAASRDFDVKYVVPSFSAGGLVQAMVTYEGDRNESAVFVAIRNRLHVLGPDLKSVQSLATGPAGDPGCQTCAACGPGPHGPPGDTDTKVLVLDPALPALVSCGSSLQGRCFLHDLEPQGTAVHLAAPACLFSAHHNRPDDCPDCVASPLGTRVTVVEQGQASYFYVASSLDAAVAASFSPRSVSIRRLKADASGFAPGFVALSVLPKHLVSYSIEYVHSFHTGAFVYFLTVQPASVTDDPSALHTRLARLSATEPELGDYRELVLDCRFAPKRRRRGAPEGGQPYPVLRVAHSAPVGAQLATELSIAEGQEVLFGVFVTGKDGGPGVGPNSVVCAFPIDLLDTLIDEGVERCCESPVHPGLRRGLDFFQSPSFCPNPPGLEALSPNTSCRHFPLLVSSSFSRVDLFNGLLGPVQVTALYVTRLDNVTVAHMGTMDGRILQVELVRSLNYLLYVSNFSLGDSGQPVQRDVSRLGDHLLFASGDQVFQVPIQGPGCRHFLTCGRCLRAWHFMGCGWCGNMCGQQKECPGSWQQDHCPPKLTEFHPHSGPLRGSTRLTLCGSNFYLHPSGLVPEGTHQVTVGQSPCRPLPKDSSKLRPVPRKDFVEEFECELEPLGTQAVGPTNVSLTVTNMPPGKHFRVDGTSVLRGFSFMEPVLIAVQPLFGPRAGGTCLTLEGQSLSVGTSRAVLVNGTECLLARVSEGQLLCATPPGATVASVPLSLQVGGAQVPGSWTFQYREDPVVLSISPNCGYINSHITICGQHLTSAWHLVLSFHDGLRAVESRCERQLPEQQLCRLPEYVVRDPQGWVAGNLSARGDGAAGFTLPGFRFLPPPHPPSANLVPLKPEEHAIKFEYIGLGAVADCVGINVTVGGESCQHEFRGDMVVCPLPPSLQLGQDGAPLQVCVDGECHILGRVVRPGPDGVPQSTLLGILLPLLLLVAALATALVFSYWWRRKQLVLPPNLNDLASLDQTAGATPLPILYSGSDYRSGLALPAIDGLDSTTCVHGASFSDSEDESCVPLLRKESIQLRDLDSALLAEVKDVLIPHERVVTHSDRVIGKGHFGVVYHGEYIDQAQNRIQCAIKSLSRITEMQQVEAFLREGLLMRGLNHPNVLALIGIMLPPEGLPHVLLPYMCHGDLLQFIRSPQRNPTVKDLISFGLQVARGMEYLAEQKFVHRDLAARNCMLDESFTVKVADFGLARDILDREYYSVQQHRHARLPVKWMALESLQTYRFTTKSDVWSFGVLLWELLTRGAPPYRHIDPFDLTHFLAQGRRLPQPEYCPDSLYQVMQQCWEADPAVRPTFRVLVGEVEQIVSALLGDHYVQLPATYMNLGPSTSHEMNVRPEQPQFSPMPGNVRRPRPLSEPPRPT
RET (human), P07949 [M918T], sequence (P07949 whole entry M918T, looked up): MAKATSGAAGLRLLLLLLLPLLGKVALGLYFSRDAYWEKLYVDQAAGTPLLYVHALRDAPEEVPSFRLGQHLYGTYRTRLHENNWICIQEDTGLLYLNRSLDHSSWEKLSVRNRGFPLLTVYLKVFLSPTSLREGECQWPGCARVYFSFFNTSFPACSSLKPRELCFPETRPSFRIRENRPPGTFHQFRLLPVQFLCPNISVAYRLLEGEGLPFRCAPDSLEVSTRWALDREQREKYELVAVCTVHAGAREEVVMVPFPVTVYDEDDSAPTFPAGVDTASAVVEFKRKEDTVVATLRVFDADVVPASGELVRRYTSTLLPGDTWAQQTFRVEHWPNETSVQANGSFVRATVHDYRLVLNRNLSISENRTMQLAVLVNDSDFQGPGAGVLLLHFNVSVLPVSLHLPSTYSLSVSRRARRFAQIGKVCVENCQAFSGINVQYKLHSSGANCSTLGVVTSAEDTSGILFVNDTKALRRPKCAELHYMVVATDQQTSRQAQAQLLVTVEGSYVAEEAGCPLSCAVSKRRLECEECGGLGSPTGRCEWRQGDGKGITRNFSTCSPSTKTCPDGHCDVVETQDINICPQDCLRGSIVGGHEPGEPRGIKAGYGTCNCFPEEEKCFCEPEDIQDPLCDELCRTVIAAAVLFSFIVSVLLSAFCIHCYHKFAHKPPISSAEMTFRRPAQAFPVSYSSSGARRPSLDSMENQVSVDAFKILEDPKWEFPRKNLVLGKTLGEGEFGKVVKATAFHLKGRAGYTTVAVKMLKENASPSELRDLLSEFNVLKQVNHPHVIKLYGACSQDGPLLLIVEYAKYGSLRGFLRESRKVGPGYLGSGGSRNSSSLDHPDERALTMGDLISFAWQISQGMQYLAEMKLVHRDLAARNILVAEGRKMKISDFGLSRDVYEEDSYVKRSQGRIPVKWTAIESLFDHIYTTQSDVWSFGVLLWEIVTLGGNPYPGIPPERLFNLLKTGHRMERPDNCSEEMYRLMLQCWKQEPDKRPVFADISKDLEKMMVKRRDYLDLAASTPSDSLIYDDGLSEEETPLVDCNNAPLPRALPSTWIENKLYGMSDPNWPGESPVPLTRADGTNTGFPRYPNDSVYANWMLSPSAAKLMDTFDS

CCc1ccc(C(=O)Nc2cc(CN3CCN(C)CC3)cc(C(F)(F)F)c2)cc1C#Cc1cnc2ccnn2c1
kinase still bound, per cent of control (ALK (human)): 100% | kinase still bound, per cent of control (AXL (human)): 100% | kinase still bound, per cent of control (BMPR1B (human)): 100% | kinase still bound, per cent of control (CDC2L2 (human)): 100% | kinase still bound, per cent of control (CDK19 (human)): 90% | kinase still bound, per cent of control (CDK7 (human)): 100% | kinase still bound, per cent of control [1]: 90% | kinase still bound, per cent of control [2]: 100% | kinase still bound, per cent of control (ERBB3 (human)): 86% | kinase still bound, per cent of control (ERN1 (human)): 100% | kinase still bound, per cent of control [3]: 70% | kinase still bound, per cent of control (FRK (human)): 47% | kinase still bound, per cent of control (HIPK3 (human)): 100% | kinase still bound, per cent of control (IRAK1 (human)): 100% | kinase still bound, per cent of control (ITK (human)): 100% | kinase still bound, per cent of control (MAP3K5 (human)): 100% | kinase still bound, per cent of control (MAP3K7 (human)): 100% | kinase still bound, per cent of control (MAP4K1 (human)): 100% | kinase still bound, per cent of control (MAP4K2 (human)): 100% | kinase still bound, per cent of control (MAPK10 (human)): 100% | kinase still bound, per cent of control (MERTK (human)): 52% | kinase still bound, per cent of control (MST1R (human)): 66% | kinase still bound, per cent of control (NEK5 (human)): 100% | kinase still bound, per cent of control (NTRK1 (human)): 75% | kinase still bound, per cent of control (PHKG1 (human)): 85% | kinase still bound, per cent of control (PRKG2 (human)): 100% | kinase still bound, per cent of control [4]: 46% | kinase still bound, per cent of control (RPS6KA2 KD1 (human)): 78% | kinase still bound, per cent of control (RPS6KA5 KD1 (human)): 93% | kinase still bound, per cent of control (SGK110 (human)): 100% | kinase still bound, per cent of control (TESK1 (human)): 73% | kinase still bound, per cent of control (TGFBR2 (human)): 100% | kinase still bound, per cent of control (TIE1 (human)): 51% | kinase still bound, per cent of control (TSSK1B (human)): 95% | kinase still bound, per cent of control [5]: 100%

Reference: the kinase profiling compilation of Christmann-Franck et al. (2016)
